Article PMC3409661 (Radiation research, 2012)
Like-named read-outs stand apart in the source and are kept apart here.

What was measured:
[1] = system: S. typhimurium strain TA100; type: cell-based, Salmonella typhimurium
[2] = system: S. typhimurium strain TA98; type: cell-based, Salmonella typhimurium
[3] = system: Sprague-Dawley rat dorsal skin; experiment: Rat dorsal skin radiodermatitis assay; type: in vivo
[4] = system: diploid human fibroblasts; experiment: Flow cytometry cell-cycle analysis; type: cell-based
[5] = system: ICR mice; experiment: Mouse aminothiol toxicity assay; type: in vivo
[6] = cited from earlier work
[7] = Distribution of [14C] PrC-210 topically applied to rat skin; settings: for Recovery (carcass) / Recovery (skin) = skin (dose site) + skin wash / Recovery (total): 48 h
[8] = system: rat; settings: rat model, 0.5× mouse MTD; cited from earlier work
[9] = system: p21; experiment: Western blot for p21 expression in nuclear extracts; type: cell-based, human; settings: 4.1 mM PrC-210 for 30 h vs untreated cells
[10] = system: supercoiled pUC19 plasmid DNA; experiment: Protection of plasmid DNA against ROS-induced nicking; type: biochemical; settings: PrC-210 0–70 mM added before hydroxyl radical generating system
[11] = pH and disulfide formation of aqueous PrC-210 solutions; type: physicochemical; settings: for PrC-210 disulfide in solution: aqueous
[12] = system: ICR mice; experiment: Mouse radiation survival assay; type: in vivo
[13] = system: diploid human fibroblasts; experiment: Human cell growth inhibition; type: cell-based; settings: PrC-210 in medium for 30 h before cell counting
[14] = system: ICR mice; settings: known radioprotectors, value quoted for comparison, no reference given; cited from earlier work
[15] = system: ferret; settings: ferret model, 0.5× mouse MTD; cited from earlier work
[16] = system: humans; settings: cited from earlier work
[17] = system: CHO K1 cells; settings: reported in one setting; cited from earlier work
[18] = Group 2: 1850 mM dermal, without norepinephrine
[19] = Group 3: 1850 mM dermal, with 300 mM norepinephrine
[20] = 87 μM (so in the source), positive control

**Q.** With `CNCC(CS)CNC` [PrC-210] as the compound, how does the “Colonies/plate (mean ± SD) Strain TA100 +S9” value ([1]; 30 μM) read?
**A.** 119 Colonies/plate

**Q.** What about the “Colonies/plate (mean ± SD) Strain TA100 −S9” value ([1]; 30 μM) of the same compound?
**A.** 121 ± 8 Colonies/plate

**Q.** What about the “Colonies/plate (mean ± SD) Strain TA100 +S9” value ([1]; 100 μM) of the same compound?
**A.** 127 ± 8 Colonies/plate

**Q.** And the “Colonies/plate (mean ± SD) Strain TA100 −S9” value ([1]; 100 μM)?
**A.** 116 ± 22 Colonies/plate

**Q.** And the “Colonies/plate (mean ± SD) Strain TA100 +S9” value ([1]; 400 μM)?
**A.** 144 ± 14 Colonies/plate

**Q.** What about the “Colonies/plate (mean ± SD) Strain TA100 −S9” value ([1]; 400 μM) of the same compound?
**A.** 128 Colonies/plate

**Q.** What about the “Colonies/plate (mean ± SD) Strain TA100 +S9” value ([1]; 1000 μM) of the same compound?
**A.** 148 ± 5 Colonies/plate

**Q.** What about the “Colonies/plate (mean ± SD) Strain TA100 −S9” value ([1]; 1000 μM) of the same compound?
**A.** 101 ± 19 Colonies/plate

**Q.** What about the “Colonies/plate (mean ± SD) Strain TA100 +S9” value ([1]; 4100 μM) of the same compound?
**A.** 115 ± 33 Colonies/plate

**Q.** What about the “Colonies/plate (mean ± SD) Strain TA100 −S9” value ([1]; 4100 μM) of the same compound?
**A.** 134 ± 20 Colonies/plate

**Q.** And the “Colonies/plate (mean ± SD) Strain TA100 +S9” value ([1]; 7000 μM)?
**A.** 149 ± 18 Colonies/plate

**Q.** What about the “Colonies/plate (mean ± SD) Strain TA100 −S9” value ([1]; 7000 μM) of the same compound?
**A.** 128 ± 11 Colonies/plate

**Q.** And the “mutagenicity: point mutations (strain TA100)” value ([1]; concentrations up to 7 mM)?
**A.** nor point mutations

**Q.** What about the “Colonies/plate (mean ± SD) Strain TA98 −S9” value ([2]; 30 μM) of the same compound?
**A.** 43 ± 2 Colonies/plate

**Q.** What about the “Colonies/plate (mean ± SD) Strain TA98 +S9” value ([2]; 100 μM) of the same compound?
**A.** 64 ± 4 Colonies/plate

**Q.** What about the “Colonies/plate (mean ± SD) Strain TA98 −S9” value ([2]; 100 μM) of the same compound?
**A.** 51 ± 6 Colonies/plate

**Q.** What about the “Colonies/plate (mean ± SD) Strain TA98 +S9” value ([2]; 400 μM) of the same compound?
**A.** 55 ± 3 Colonies/plate

**Q.** And the “Colonies/plate (mean ± SD) Strain TA98 −S9” value ([2]; 400 μM)?
**A.** 58 ± 14 Colonies/plate

**Q.** What about the “Colonies/plate (mean ± SD) Strain TA98 +S9” value ([2]; 1000 μM) of the same compound?
**A.** 54 ± 6 Colonies/plate

**Q.** What about the “Colonies/plate (mean ± SD) Strain TA98 −S9” value ([2]; 1000 μM) of the same compound?
**A.** 53 ± 3 Colonies/plate

**Q.** What about the “Colonies/plate (mean ± SD) Strain TA98 +S9” value ([2]; 4100 μM) of the same compound?
**A.** 55 Colonies/plate

**Q.** What about the “Colonies/plate (mean ± SD) Strain TA98 −S9” value ([2]; 4100 μM) of the same compound?
**A.** 55 ± 5 Colonies/plate

**Q.** What about the “Colonies/plate (mean ± SD) Strain TA98 +S9” value ([2]; 7000 μM) of the same compound?
**A.** 65 ± 9 Colonies/plate

**Q.** And the “Colonies/plate (mean ± SD) Strain TA98 −S9” value ([2]; 7000 μM)?
**A.** 51 ± 5 Colonies/plate

**Q.** And the “mutagenicity: frameshift mutations (strain TA98)” value ([2]; concentrations up to 7 mM)?
**A.** neither frameshift mutations

**Q.** What about the “protection against radiation dermatitis” value ([3]; 1 to 2 topical applications only) of the same compound?
**A.** much less protection

**Q.** And the “prevention of radiation dermatitis” value ([3]; four topical applications over 2 h before irradiation (Fig. 5F))?
**A.** 98%

**Q.** And the “prevention of radiation dermatitis, systemic administration” value ([3]; i.p. 200 μg/g BW 30 min before 17.3 Gy)?
**A.** complete prevention

**Q.** And the “radiodermatitis prevention, structure-activity study” value ([3]; topical 370 mM, thiol plus charged alkyl-amine backbone (Fig. 6))?
**A.** 100%

**Q.** What about the “protection against radiation dermatitis, aqueous vehicle” value ([3]; topical 1500 mM in vehicles containing 75% water) of the same compound?
**A.** still conferred protection

**Q.** And the “prevention of Grade 2–3 radiation dermatitis by increasing topical doses” value ([3]; topical application to rat skin before irradiation vs vehicle controls)?
**A.** completely prevented

**Q.** What about the “prevention of Grade 3 radiation dermatitis, topical” value ([3]; topical, at or above 370 mM, 17.3 Gy, scored 13 days after irradiation) of the same compound?
**A.** completely prevented

**Q.** And the “IC100 dose for radiation dermatitis” value ([3]; topical, vehicle 0:95:5 (ethanol:propylene glycol:water))?
**A.** 1500 mM

**Q.** What about the “IC100 dose for radiation dermatitis” value ([3]; topical, vehicle 50:30:20 (ethanol:propylene glycol:water)) of the same compound?
**A.** 370 mM

**Q.** And the “S-phase fraction of cells after washout” value ([4]; 4.1 mM PrC-210 30 h, then washout and fresh medium 48 h)?
**A.** 40%

**Q.** And the “S-phase fraction of cells” value ([4]; 4.1 mM PrC-210 for 30 h, control 53%)?
**A.** 8%

**Q.** And the “type of cell cycle block” value ([4]; PrC-210-treated normal human fibroblasts)?
**A.** G1/S cell cycle block

**Q.** And the “i.p. MTD (= i.p. LD10 dose)” value ([5]; extrapolated from the best fit curve (Fig. 8A))?
**A.** 422 μg/g BW

**Q.** And the LD10 dose ([5]; i.p., probit analysis of percentage survival data)?
**A.** 504 μg/g BW

**Q.** And the toxic response ([5]; single i.p. 500 μg/g BW)?
**A.** either a transient response in which the mice are sleepy but then rebound over several hours and survive, or they die within 1–2 h

**Q.** And the lethality ([5]; single i.p. 700 μg/g BW, severe muscle spasm then death within min)?
**A.** 100%

**Q.** And the oral activity [6]?
**A.** active when taken orally

**Q.** And the “systemic dose after topical application” value ([7]; 300 g rats, 1.1 mg absorbed, over 48 h (lowest))?
**A.** 3.7 μg/g BW

**Q.** And the “estimated mass that crossed the skin barrier and entered systemic circulation” value ([7]; Group 1, over 48 h (16.28 mg × 6.7%))?
**A.** 1.1 mg

**Q.** What about the “Cmax (radioactivity in plasma)” value ([7]; Group 1: 370 mM dermal, 16.28 mg applied) of the same compound?
**A.** 257 ng-eq/g

**Q.** And the “Recovery (carcass)” value ([7]; Group 1: 370 mM dermal)?
**A.** 0.52%

**Q.** What about the “Recovery (skin) = skin (dose site) + skin wash” value (from here on “Recovery (skin) = skin”) ([7]; Group 1: 370 mM dermal) of the same compound?
**A.** 41.54%

**Q.** What about the “Recovery (total)” value ([7]; Group 1: 370 mM dermal) of the same compound?
**A.** 49.4%

**Q.** And the “Recovery (carcass)” value [7, 18]?
**A.** 1.84%

**Q.** And the “Recovery (skin) = skin” value [7, 18]?
**A.** 47.16%

**Q.** And the “Recovery (total)” value [7, 18]?
**A.** 66.0%

**Q.** What about the “estimated mass that crossed the skin barrier and entered systemic circulation” value ([7]; Group 3, over 48 h) of the same compound?
**A.** 6.8 mg

**Q.** What about the “Cmax (radioactivity in plasma)” value ([7]; Group 3: 1850 mM dermal, 81.40 mg applied, with 300 mM norepinephrine) of the same compound?
**A.** 726 ng-eq/g

**Q.** What about the “Recovery (carcass)” value [7, 19] of the same compound?
**A.** 1.53%

**Q.** And the “Recovery (skin) = skin” value [7, 19]?
**A.** 60.46%

**Q.** What about the “Recovery (total)” value [7, 19] of the same compound?
**A.** 70.0%

**Q.** And the “share of absorbed radioactivity eliminated by the urine” value ([7]; after dermal dose)?
**A.** ≥ 90%

**Q.** What about the “transfer of topically applied PrC-210 into systemic circulation” value ([7]; over 48 h following topical administration, across groups) of the same compound?
**A.** 6–15%

**Q.** And the “14C cpm in blood remaining soluble after TCA precipitation” value ([7]; rat blood samples, preliminary analysis (not shown))?
**A.** less than 10%

**Q.** What about the hypotension response [8] of the same compound?
**A.** nor hypotension response

**Q.** And the “p21 protein level in nuclear extracts” value [9]?
**A.** significantly elevated

**Q.** And the “protection of supercoiled plasmid DNA against ROS-induced nicking” value [10]?
**A.** complete protection

**Q.** And the “pH on dissolution in water” value ([11]; HCl salt dissolved in water)?
**A.** ~ 3.0

**Q.** And the “PrC-210 disulfide in solution” value ([11]; pH 5.5, 1 week at room temperature in the dark)?
**A.** < 1%

**Q.** And the “PrC-210 disulfide in solution” value ([11]; pH 8.0, 1 week at room temperature in the dark)?
**A.** > 98%

**Q.** What about the “dose reduction factor (DRF)” value ([12]; i.p. 211 μg/g BW 30 min before increasing radiation doses, survival to day 35) of the same compound?
**A.** 1.6

**Q.** What about the survival ([12]; i.p. 211 μg/g BW (0.5× MTD best fit) 30 min before 8.63 Gy whole-body radiation) of the same compound?
**A.** 98%

**Q.** And the survival ([12]; i.p. 252 μg/g BW 30 min before 8.75 Gy (otherwise 100% lethal))?
**A.** 100%

**Q.** And the survival ([12]; i.p. 252 μg/g BW (0.5× MTD probit) 30 min before 8.63 Gy whole-body radiation)?
**A.** 100%

**Q.** And the “IC70 dose, inhibition of cell growth” value [13]?
**A.** 4.1 mM

**Q.** For `NCCCNCCSP(=O)(O)O` [amifostine], which “dose reduction factor (DRF)” value [14] is on record?
**A.** 1.6

**Q.** And the retch/vomit response [15]?
**A.** elicits both responses

**Q.** And the systemic toxicities ([16]; human amifostine use)?
**A.** significant systemic toxicities (nausea/emesis, hypotension/fainting)

**Q.** And the “efficacy when applied topically to skin or mucosa” value ([16]; humans)?
**A.** has not been effective

**Q.** What about the hypotension response [8] of the same compound?
**A.** elicits both responses

**Q.** For `NCCCNCCS` [WR-1065, 2-[(aminopropyl)amino]ethanethiol], which “type of cell cycle block” value [17] is on record?
**A.** G2/M cell cycle block

**Q.** Which “Colonies/plate (mean ± SD) Strain TA100 +S9” value [1, 20] does the source give for `Nc1cccc2cc3ccccc3cc12` [Aminoanthracene, reference compound] here?
**A.** 570 ± 90 Colonies/plate

**Q.** And the “Colonies/plate (mean ± SD) Strain TA98 +S9” value [2, 20]?
**A.** 177 Colonies/plate

**Q.** And the “Colonies/plate (mean ± SD) Strain TA98 −S9” value [2, 20]?
**A.** >1800 Colonies/plate
